Where two headings read alike, the source gives them in different places.
Columns and labels:
[1] = system: tomato variety FL47 mature green tomatoes; test: Tomato bioassay (spray application or vacuum infiltration of harvested mature green tomatoes, ripening judged by colour); assay type: in vivo; settings: 5 to 7 days after treatment, FIGS. 2-5
Protocol: Tomato bioassay: NAE solutions containing 20 ppm or 500 ppm of NAE were used to treat harvested tomatoes as described below. The solutions were prepared by dispersing a solid NAE compound in water through sonication.
Egg LPE was purchased from Avanti Polar Lipids (Alabaster, Ala.). Egg LPE solutions containing 20 ppm or 500 ppm LPE were used as positive controls in the assays described below. The solutions were prepared by dispersing LPE into water through sonication or aggressive agitation.
The tomatoes used in this study were tomato variety FL47 (cultivar), 6×6 mature green tomatoes of good quality MG3–4 ([…]: no apparent external change from green to pink). The tomatoes were purchased from West Coast Tomato (Palmetto, Fla.) and Dimare Tomato (Homestead, Fla.).
The system used for classifying tomato mature stages is as the follows: Green (Stage 1)—“Green” means that the surface of the tomato is completely green in color. The shade of green may vary from light to dark. Breakers (Stage 2)—“Breakers” means there is a definite “break” in color from green, to tannish-yellow, pink or red on not more than 10% of the surface. […] Red (R) (Stage 6)—“Red” means that more than 90% of the surface, in the aggregate, is red.
Locules contain hard, white substance. […] Seeds are forming and are white. […] Seeds are fully formed and are turning from white to beige. MG4-Fruit are softening a little but still completely green on the outside. Inside locular gel is completely formed with hints of pink coloration in the columella tissue. Seeds are dark beige to light brown.
In spray application bioassays, the tomatoes were placed in 100° F. water for 90 seconds, after which the tomatoes were removed from water and placed stem scar up onto a sheet of plastic. An NAE solution or LPE solution was sprayed onto the tomatoes at 30 psi using a flat fan tip situated approximately 8 to 10 inches above the tomatoes. The tomatoes were air dried and placed on a sheet of white paper with stem scar down under consistent environmental conditions. Five to seven days later, the ripening of the tomatoes were determined by visual observation of the color of the tomatoes.
In vacuum infiltration bioassay, each tomato was placed on top of a vacuum bell jar platform with stem scar facing up. 0.5 ml of NAE solution or LPE solution was placed onto stem scar and the glass bell jar lid was lowered onto the jar platform. The vacuum was started and the air escaped from the interior of the tomato causing the NAE solution or the LPE solution on the stem scar to bubble. After a preset time period, the air inlet was opened slowly to release vacuum in the bell jar. […] Five to seven days later, the ripening of the tomatoes were determined by visual observation of the color of the tomatoes.

[2] = system: Raphanus sativus L. cv. Cherry Belle cotyledons; test: Radish cotyledon bioassay (expansion growth and chlorophyll accumulation); assay type: in vivo; settings: for Change in fresh weight: continuous illumination, 25° C., ten cotyledons; for activity at 20 µg/mL: Raphanus sativus, read-out: Change in fresh weight, % of control
Description: Radish cotyledon bioassay: This bioassay using Raphanus sativus L. cv. Cherry Belle cotyledons was developed by Letham, DS (Physiologia Plantarum 25, 391–396, 1971, incorporated by reference in its entirety) to evaluate the efficacy of cytokinin on cell enlargement. Success using this assay is not restricted to radish. […] In addition to their effect on cell division, cytokinin plays a major role in driving cell enlargement. Compounds in this class of phytohormone and with cytokinin activity also help maintain photosynthetic activity and productivity and abolish proteolytic activity. In cotyledon leaf systems, a requirement for cytokinin is critical and removal of the roots (i.e. the presumed source of cytokinin) renders the cotyledon leaves unable to expand. Exposure to cytokinin (0.02–22 μg/ml) results in a dramatic increase in fresh weight of cotyledons within 72 hours. This effect is not observed with either gibberellin or auxin and is usually delayed or inhibited by abscisic acid and the ethylene precursor, 1-aminocyclopropane-1-carboxylic acid (ACC). […] Thus, the mode of action of cytokinin in this system appears to be similar to that of indole-3-acetic acid (IAA) in auxin-induced stem elongation, a process that depends on an increase in the mechanical extensibility of the cell wall. However, cytokinin antagonizes IAA-mediated cell elongation and appears to do so by promoting ethylene production. Furthermore, cytokinin-induced cell expansion is not usually accompanied by proton (H^+) extrusion and no change in plasma membrane ATPase activity is evident.
Seeds of Raphanus sativus L. cv. Cherry-Belle were germinated in darkness at 24° C. for 36 h in Petri dishes containing filter paper wetted with distilled water. The smaller of the two cotyledons was excised, the fresh weight determined, and 10 cotyledons placed adaxial side down on filter paper in Petri dishes containing 10 ml of KPO4 buffer (2 mM, pH 6.0) and the compounds to be tested at 20 mg/l. […] Chlorophyll content was determined after extraction of tissue into 80% ethanol (containing butylated hydroxytoluene (BHT) 10 mg/l) using the equations Chl a=(13.95A663)−(6.88A647) and Chl b=(24.96A652)−(7.32A663) as described by Lichtenthaler, HK, Methods in Enzymology 148: 350–382, 1987, incorporated by reference in its entirety. FIG. 6 illustrates the difference in cotyledon size in response to the cytokinin kinetin.

maize roots = test: Corn root bioassay (ethylene production by maize roots); assay type: in vivo, Zea mays L.; settings: 20 mg/l; for activity at 20 µg/mL: Zea mays, read-out: Ethylene, % of control
Protocol: Corn root bioassay: It is well established that roots of Zea mays produce ethylene when exposed to a variety of stresses (for review, see Morgan, PW and Drew, MC, Physiologia Plantarum 100: 620–630, 1997). Mechanical impedance and hypoxia both induce ethylene formation and usually as early as 1 hour after exposure. In response to ethylene treatment, maize roots show decreased expansion and elongation, a high incidence of cell death and the formation of aerenchyma tissue—particularly evident when roots are exposed to hypoxic conditions (Drew, MC et al., Trends in Plant Science 5: 123–127, 2000, Morgan and Drew 1997).
Seeds of Zea mays L. were sown in flats of Perlite, covered with a layer of vermiculite, and irrigated daily with water and/or 1/10 Hoagland solution. Seedlings were cultivated under continuous illumination at 22–25° C. and used when 7 d old. Seedlings were removed from the Perlite and washed under running tap water. Seedlings were allowed to acclimate in water and/or 1/10 Hoagland solution for several hours before being transferred to Falcon tubes containing the test compounds (all 20 mg/l) prepared in 1/10 Hoagland solution. […] Roots were then transferred to gas-tight tubes each containing 200 μl of water. The tubes were sealed and incubated at 26° C. for 1–2 h in darkness before gas samples were drawn from the incubation tubes using a 1 ml syringe and assayed by gas chromatography (Romera, FJ et al. (1999) Annals of Botany 83, 51–55).

[3] = summary statement in the description
[4] = Table 3, 48 h incubation, 20 mg/l

| Structure (SMILES) | number of ripened tomatoes compared to the control group ([1]; sprayed with 500 ppm) | number of ripened tomatoes compared to the control group ([1]; vacuum infiltrated with 20 ppm) | Chlorophyll (mg/g FW) a + b ([2]; Experiment 2, 20 mg/l, 48 h) [mg/g FW] | Chlorophyll (μg/cotyledon) a + b ([2]; Experiment 2, 20 mg/l, 48 h) [μg/cotyledon] | Chlorophyll a/b ([2]; Experiment 2, 20 mg/l, 48 h) | Change in fresh weight ([2]; Experiment 2, 20 mg/l, 48 h) [mg] | activity at 20 µg/mL ([2]; Experiment 2, 20 mg/l, 48 h) [%] | cytokinin-like activities (summary of the examples) [2, 3] | activity at 20 µg/mL (maize roots; experiment 1, 72 h) [%] | activity at 20 µg/mL (maize roots; experiment 2, 36 h) [%] | Ethylene (maize roots; experiment 2, 36 h illumination, roots incubated 2 h in darkness at 24° C.) [pmol/g FW/h] | Chlorophyll a/b ([2]; Experiment 1, 20 mg/l, 72 h) | Change in fresh weight ([2]; Experiment 1, 20 mg/l, 72 h) [mg] | activity at 20 µg/mL ([2]; Experiment 1, 20 mg/l, 72 h) [%] | chlorophyll content per unit mass (in words) [2, 4] | chlorophyll per cotyledon (in words) [2, 4] | hormone-like activity with respect to expansion growth (in words) [2, 4] | ethylene-like activities (summary of the examples) [2, 3] |
| --- | --- | --- | --- | --- | --- | --- | --- | --- | --- | --- | --- | --- | --- | --- | --- | --- | --- | --- |
| CCCCCCCCCCCCCC(=O)NCCO [NAE-14:0, N-Tetradecanoyl-2-aminoethanol] | higher number of ripened tomatoes | higher number of ripened tomatoes | 1.90 | 23.41 | 1.8 | 7.91 ± 1.34 | 98 | cytokinin-like activities | – | – | – | – | – | – | – | – | – | – |
| CCCCCCCCCC(=O)NCCO [NAE-10:0, N-Decanoyl-2-aminoethanol] | higher number of ripened tomatoes | higher number of ripened tomatoes | 1.41 | 22.57 | 1.8 | 11.56 ± 2.16 | 143 | cytokinin-like activities | 124 | 115 | 33.02 ± 9.63 | 1.5 | 10.34 ± 3.28 | 74 | decreased chlorophyll content per unit mass | increased chlorophyll per cotyledon | cytokinin-like activity | ethylene-like activities |

From patent US7205261B2, “Use of certain N-acylethanolamines to achieve ethylene- and cytokinin-like effects in plants and fungi” (Nutra-Park, Inc., priority 2002, dated 2007)
